In PMC11367099 (Heliyon, 2024):

Legend:
Test in all cases: Fluorescein-AMP
Format in all cases: biochemical
[1] = molecular target: PDE3A (Homo sapiens, UniProt Q14432)
[2] = molecular target: PDE8A1 (Homo sapiens, UniProt O60658)
[3] = molecular target: PDE5A (Homo sapiens, UniProt O76074)
[4] = molecular target: PDE10A2 (Homo sapiens, UniProt Q9Y233)
Sequence of PDE10A2 (Q9Y233 267-1055): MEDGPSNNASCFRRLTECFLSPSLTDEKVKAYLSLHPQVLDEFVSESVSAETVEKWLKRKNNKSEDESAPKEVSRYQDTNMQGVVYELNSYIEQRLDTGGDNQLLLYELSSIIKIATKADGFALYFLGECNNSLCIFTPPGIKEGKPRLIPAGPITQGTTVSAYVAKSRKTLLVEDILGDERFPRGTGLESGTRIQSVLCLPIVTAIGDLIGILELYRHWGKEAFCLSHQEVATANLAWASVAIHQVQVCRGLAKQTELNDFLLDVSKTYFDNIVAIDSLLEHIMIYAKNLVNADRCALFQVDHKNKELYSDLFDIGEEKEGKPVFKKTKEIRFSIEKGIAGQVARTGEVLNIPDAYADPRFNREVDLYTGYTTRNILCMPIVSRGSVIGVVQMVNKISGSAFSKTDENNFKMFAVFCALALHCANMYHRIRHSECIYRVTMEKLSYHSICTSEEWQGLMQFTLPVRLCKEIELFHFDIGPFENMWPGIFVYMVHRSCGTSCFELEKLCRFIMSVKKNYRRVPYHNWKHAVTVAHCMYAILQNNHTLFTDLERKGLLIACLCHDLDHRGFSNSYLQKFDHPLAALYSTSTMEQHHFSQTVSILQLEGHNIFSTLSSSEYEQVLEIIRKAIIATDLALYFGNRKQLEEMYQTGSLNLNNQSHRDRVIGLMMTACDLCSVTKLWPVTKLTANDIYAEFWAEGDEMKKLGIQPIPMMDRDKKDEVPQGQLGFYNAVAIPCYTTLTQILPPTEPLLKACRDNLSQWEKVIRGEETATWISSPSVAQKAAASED

Sequence of PDE3A (Q14432 whole entry): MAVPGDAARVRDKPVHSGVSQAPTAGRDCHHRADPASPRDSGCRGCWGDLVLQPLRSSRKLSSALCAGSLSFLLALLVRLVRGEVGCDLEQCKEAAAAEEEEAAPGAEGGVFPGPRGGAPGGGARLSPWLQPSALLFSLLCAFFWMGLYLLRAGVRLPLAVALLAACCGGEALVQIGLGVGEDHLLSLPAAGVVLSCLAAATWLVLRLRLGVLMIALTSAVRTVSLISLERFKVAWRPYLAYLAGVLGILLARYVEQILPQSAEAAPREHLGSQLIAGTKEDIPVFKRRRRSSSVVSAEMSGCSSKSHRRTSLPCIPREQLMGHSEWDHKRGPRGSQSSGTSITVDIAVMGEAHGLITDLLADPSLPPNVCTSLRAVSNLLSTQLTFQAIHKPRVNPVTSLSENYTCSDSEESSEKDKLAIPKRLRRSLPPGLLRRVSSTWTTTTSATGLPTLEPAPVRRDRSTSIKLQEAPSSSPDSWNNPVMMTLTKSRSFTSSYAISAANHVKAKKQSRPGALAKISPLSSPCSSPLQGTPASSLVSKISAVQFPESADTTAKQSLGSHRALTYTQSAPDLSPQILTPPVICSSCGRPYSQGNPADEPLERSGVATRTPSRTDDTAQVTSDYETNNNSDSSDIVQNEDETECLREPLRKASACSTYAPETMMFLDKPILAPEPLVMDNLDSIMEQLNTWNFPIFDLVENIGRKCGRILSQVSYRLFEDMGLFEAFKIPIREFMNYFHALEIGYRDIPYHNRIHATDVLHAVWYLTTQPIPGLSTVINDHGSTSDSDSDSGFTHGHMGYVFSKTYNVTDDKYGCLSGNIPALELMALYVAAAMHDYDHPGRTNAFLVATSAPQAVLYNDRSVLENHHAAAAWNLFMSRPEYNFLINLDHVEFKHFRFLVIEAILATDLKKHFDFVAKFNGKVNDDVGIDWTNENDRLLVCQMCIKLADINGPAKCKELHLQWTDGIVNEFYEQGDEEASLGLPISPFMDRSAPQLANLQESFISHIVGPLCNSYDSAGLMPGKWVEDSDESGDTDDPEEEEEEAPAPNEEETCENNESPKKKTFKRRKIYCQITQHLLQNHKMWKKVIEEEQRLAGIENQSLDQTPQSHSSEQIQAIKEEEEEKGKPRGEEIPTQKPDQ
Sequence of PDE8A1 (O60658 whole entry): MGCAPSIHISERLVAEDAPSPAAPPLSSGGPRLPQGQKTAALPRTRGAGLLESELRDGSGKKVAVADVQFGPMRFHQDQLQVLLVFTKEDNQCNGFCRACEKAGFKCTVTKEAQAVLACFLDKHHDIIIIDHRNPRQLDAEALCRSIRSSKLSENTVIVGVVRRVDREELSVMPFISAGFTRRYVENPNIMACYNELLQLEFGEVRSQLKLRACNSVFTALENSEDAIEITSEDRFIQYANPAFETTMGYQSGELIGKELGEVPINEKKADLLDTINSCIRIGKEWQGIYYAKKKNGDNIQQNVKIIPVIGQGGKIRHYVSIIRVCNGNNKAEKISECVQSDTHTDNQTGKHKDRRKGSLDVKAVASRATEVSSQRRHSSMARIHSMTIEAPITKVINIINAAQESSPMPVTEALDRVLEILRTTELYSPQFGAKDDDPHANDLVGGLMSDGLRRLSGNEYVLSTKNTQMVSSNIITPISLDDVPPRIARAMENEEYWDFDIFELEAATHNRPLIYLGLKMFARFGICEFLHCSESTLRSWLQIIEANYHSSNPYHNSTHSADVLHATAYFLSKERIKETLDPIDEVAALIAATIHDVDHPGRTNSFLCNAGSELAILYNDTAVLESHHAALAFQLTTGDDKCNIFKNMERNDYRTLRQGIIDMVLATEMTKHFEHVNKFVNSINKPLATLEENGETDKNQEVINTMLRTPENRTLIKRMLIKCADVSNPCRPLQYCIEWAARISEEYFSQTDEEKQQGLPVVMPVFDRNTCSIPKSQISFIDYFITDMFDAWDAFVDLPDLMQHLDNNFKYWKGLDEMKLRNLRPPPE

- IC50 [1]: 5.19 µM
- IC50 [2]: 26.3 µM
- IC50 [3]: 6.54 µM
- IC50 [4]: 9.99 µM
Compound: COc1cc(-c2cc(=O)c3c(O)c(OC)c(O)c(OC)c3o2)ccc1O [Sudachitin]
